Data as given in patent publication US9546144B2, “Bifunctional compounds” (University of Pittsburgh—of the Commonwealth System of …, priority 2011, dated 2017).

How the values were obtained:
[1] = system: luc+ bone marrow chimeric C57BL/6 mice; assay: migration of luc+ marrow cells to irradiated lungs of luc+ marrow chimeric mice; assay type: in vivo, mouse; conditions: in drinking water, after second thoracic irradiation dose
Experimental: FIG. 14. Pulmonary migration of luc+ marrow cells to irradiated lungs of luc+ chimeric mice. Groups of 30 C57BL/6Tac mice were given 10 Gy TBI then 24 hr. later 1×10^7 luc+ bone marrow cells I.V. At day 63, subgroups received 18 Gy thoracic irradiation. […] Mice were serially imaged for luciferase, as described in the methods.
MMS350 was tested in two mouse models of fibrosis in the C57BL/6J model. In the first system (chimeric mice) C57BL/6 mice were irradiated to a total body dose of 10 Gy, which is known to be lethal for 100% of animals in the absence of bone marrow transplantation. These mice were then transplanted intravenously with luciferase positive C57BL/6J mouse bone marrow. These mice are valuable for measuring the site of hematopoiesis from donor origin marrow since the animals can be imaged for mobilization in a specific imaging system, which detects the luciferase signal. In this assay system, animals are injected with luciferin (the substrate for the enzyme luciferase) bone marrow cells, which contain luciferase (those from the donor marrow strain) metabolize luciferin and produce a […] which is detected in a camera system over the immobilized mice. These same animals can be imaged serially over several weeks-months and followed for migration of luciferase positive cells from bone marrow sites into irradiated sites. […]

[2] = target: T1, PKD1 (Homo sapiens, UniProt Q15139); assay: radiometric PKD1 inhibition assay, cosolvent interference; assay type: biochemical; conditions: stock solutions in 25% 3/NMP
T1 sequence (Q15139 1-912): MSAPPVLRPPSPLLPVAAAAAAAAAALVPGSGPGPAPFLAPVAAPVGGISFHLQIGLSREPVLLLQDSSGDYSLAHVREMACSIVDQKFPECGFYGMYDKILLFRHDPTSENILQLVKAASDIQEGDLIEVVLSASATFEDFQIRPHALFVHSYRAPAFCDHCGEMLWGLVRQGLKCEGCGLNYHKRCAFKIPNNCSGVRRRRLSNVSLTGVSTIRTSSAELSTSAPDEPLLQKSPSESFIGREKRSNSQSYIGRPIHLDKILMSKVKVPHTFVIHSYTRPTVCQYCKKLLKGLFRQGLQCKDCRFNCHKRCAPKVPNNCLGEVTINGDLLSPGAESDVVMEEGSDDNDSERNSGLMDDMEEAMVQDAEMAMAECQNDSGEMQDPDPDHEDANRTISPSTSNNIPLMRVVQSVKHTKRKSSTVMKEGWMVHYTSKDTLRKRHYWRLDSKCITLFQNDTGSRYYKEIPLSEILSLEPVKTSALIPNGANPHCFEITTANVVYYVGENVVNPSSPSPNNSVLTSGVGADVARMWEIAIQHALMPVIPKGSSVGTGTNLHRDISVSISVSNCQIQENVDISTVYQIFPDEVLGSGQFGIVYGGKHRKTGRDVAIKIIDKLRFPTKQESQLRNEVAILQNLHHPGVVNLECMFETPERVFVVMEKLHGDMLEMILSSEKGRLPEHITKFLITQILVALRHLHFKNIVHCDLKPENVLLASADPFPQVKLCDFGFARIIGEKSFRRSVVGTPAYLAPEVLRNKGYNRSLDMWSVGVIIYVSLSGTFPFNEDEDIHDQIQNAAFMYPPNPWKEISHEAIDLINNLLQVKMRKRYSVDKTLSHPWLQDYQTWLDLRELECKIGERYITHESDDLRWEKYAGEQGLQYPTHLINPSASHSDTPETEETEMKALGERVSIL
Experimental: FIG. 8. Plot of PKD1 activity with compound concentrations of 1 μM. […] The % PKD1 activity is reported as the mean, and error bars represent SEM (n=3). The % PKD1 activity was determined as previously described.
FIG. 9. Plot of PKD1 activity with compound concentrations of 10 μM. […] The % PKD1 activity is reported as the mean, and error bars represent SEM (n=3). The % PKD1 activity was determined as previously described.
Recently, a series of compounds with nanomolar to micromolar inhibitory activity against the serine/threonine protein kinase D (PKD) isoform PKD1 was disclosed (FIG. 7). Several lead structures, especially those containing a pyrimidine moiety, suffered from poor solubility not only in aqueous media but also in DMSO. To test the feasibility of using sulfoxide 3 as a cosolvent for in vitro assays, its use in the radiometric PKD1 inhibition assay was examined. Inhibitory activity at two concentrations (1 μM and 10 μM) was measured using compound stock solutions in three formulations: DMSO, NMP, and 25% 3/NMP (FIGS. 8 and 9).

[3] = system: 32D cl 3 cells; assay: irradiated 32D cl 3 cells, cell number and viability; assay type: cell-based; conditions: 10 μM, 0-7 Gy, Day 3 or 5 after irradiation
Experimental: FIG. 10. The data are from a screening experiment where 32D cl 3 cells were irradiated to doses of 0, 1, 3, 5, or 7 Gy and placed in T25 flasks. Either JP4-039 or MM350 were added at 10 μM and incubated in a CO2 incubator at 37° C. At Day 3 or 5 after irradiation, the cells were counted and the viability determined.

CC1(C[S+]([O-])CC2(C)COC2)COC1 [compound 3, 3,3′-Sulfinylbis(methylene)bis(3-methyloxetane)]
migration of bone marrow cells into the lungs [1]: significantly reduces migration of bone marrow cells into the lungs
interference with the standard PKD1 inhibition assay [2]: did not interfere
number of cells and viability after irradiation [3]: comparable to JP4-039
